Literature values as cited in patent US20230371513A1, “PHOTOSTABLE COMPOSITION AND METHOD OF REDUCING OR CONTROLLING WEED POPULATION APPLYING SAID COMPOSITION” (UPL DO BRASIL INDUSTRIA E COMERCIO DE INSUMOS AGROPECUARIOS …, priority 2020, published 2023).

Conditions: buffer

For `Cc1nn(-c2cc(NS(C)(=O)=O)c(Cl)cc2Cl)c(=O)n1C(F)F` [sulfentrazone], the “half-life, direct photolysis” value is given as 1 to 12 h.
